Holding throughout (assay type): functional, cell-based
One experiment has as its system HEL. Description: Cytotoxicity against HEL cells assessed as reduction in cell viability incubated for 72 hrs by WST assay. Particulars: Homo sapiens.
For a further experiment, the system named is NCI-H1975. Description: Cytotoxicity against human NCI-H1975 cells assessed as reduction in cell viability incubated for 48 hrs by MTT assay. Particulars: NCI-H1975, 48 h. On the technique in general: Tetrazolium dyes change colour on reduction, which living cells bring about.
The test system of another experiment is NCI-H1299. Description: Cytotoxicity against human NCI-H1299 cells assessed as reduction in cell viability incubated for 48 hrs by MTT assay. Particulars: NCI-H1299, 48 h.
For the next experiment, the system named is A549/TR. Briefly: Cytotoxicity against human A549/Taxol cells assessed as reduction in cell viability incubated for 48 hrs by MTT assay.
The next experiment deals with A549. Briefly: Cytotoxicity against human A549 cells assessed as reduction in cell viability incubated for 72 hrs by SRB assay. Particulars: A549, 72 h. On the technique in general: Sulforhodamine B stains cellular protein and so reports cell mass.
A further experiment concerns HCT-116. Briefly: Cytotoxicity against human HCT-116 cells assessed as reduction in cell viability incubated for 72 hrs by SRB assay. Particulars: HCT-116, 72 h.
In a further experiment the test system is MDA-MB-231. Description: Cytotoxicity against human MDA-MB-231 cells assessed as reduction in cell viability incubated for 72 hrs by SRB assay. Particulars: MDA-MB-231, 72 h.
The subject of another experiment is SK-HEP1. Description: Cytotoxicity against human SK-HEP1 cells assessed as reduction in cell viability incubated for 72 hrs by SRB assay. The settings on record: SK-HEP1, 72 h.
The subject of the next experiment is SNU-638. Description: Cytotoxicity against human SNU-638 cells assessed as reduction in cell viability incubated for 72 hrs by SRB assay. Particulars: SNU-638, 72 h.
The next experiment has as its system K562. Description: Cytotoxicity against human K562 cells assessed as reduction in cell viability incubated for 72 hrs by SRB assay. The settings on record: K562, 72 h.

On to `CC[C@H](C)[C@@H]1NC(=O)[C@H](Cc2c[nH]c3ccccc23)N(C)C(=O)[C@@H]2CCCNN2C(=O)[C@H](CO)N(C)C(=O)[C@H](CC(C)C)NC(=O)[C@H](Cc2ccccc2)N(C)C(=O)[C@@H](C)NC(=O)[C@H](C(C)C)N(C)C(=O)CCNC(=O)[C@H](C)N(C)C1=O`, for which the IC50 came to 13000 nM in the experiment on HEL; 8000 nM in the experiment with NCI-H1975; 11000 nM with NCI-H1299; 19000 nM in the experiment on A549/TR; 200 nM in the experiment on A549; 200 nM with HCT-116. The IC50 in the experiment with MDA-MB-231, with SK-HEP1, with SNU-638 and with K562 was 200 nM throughout.
For `COc1cc([C@@H]2c3cc4c(cc3[C@@H](O[C@@H]3O[C@@H]5CO[C@@H](C)O[C@H]5[C@H](O)[C@H]3O)[C@H]3COC(=O)[C@H]23)OCO4)cc(OC)c1O` [ETOPOSIDE], the IC50 in the experiment with A549, in the experiment with HCT-116, in the experiment with MDA-MB-231, in the experiment with SK-HEP1, in the experiment on SNU-638 and in the experiment on K562 was 400 nM in each case.
On to `COc1cccc2c1C(=O)c1c(O)c3c(c(O)c1C2=O)C[C@@](O)(C(=O)CO)C[C@@H]3O[C@H]1C[C@H](N)[C@H](O)[C@H](C)O1` [DOXORUBICIN], for which the IC50 in the experiment on HEL came to 50 nM; in the experiment with NCI-H1975, 120 nM; in the experiment on NCI-H1299, 1400 nM; with A549/TR it was 1600 nM.
As to `CC(C)C[C@@H]1NC(=O)[C@H](Cc2ccccc2)N(C)C(=O)[C@@H](C)NC(=O)[C@H](C(C)C)N(C)C(=O)CCNC(=O)[C@H](C)N(C)C(=O)[C@H](C(C)C)NC(=O)[C@H](Cc2c[nH]c3ccccc23)N(C)C(=O)[C@@H]2CCCNN2C(=O)[C@H](CO)N(C)C1=O`, the IC50 with HEL stood at 14000 nM; with NCI-H1975 it was 24000 nM; in the experiment on NCI-H1299 it was 11000 nM; with A549/TR, 17000 nM.

As usually defined, the IC50 is the concentration that gives 50% inhibition.
